What was measured:
[1] = tested on: spontaneously hypertensive rats (SHRs); test: 2-week evaluation of blood pressure lowering effect (non-invasive tail blood pressure, CODA-6); format: in vivo, rat; conditions: olmesartan medoxomil 1, valsartan 4, telmisartan 4, dapagliflozin (as propylene glycol hydrate) 1 mg/kg/day; for Systolic blood pressure immediately before administration: 10-week-old SHR, baseline, mean of 5 rats; for Size of blood pressure reduction / Systolic blood pressure at 14th day after administration: SHR; for Size of blood pressure reduction: 14th day versus before administration; for Systolic blood pressure at 14th day after administration: once daily for 14 days, measured 2 hours after dosing
Experimental: The SHR rats are rats derived from Wistar Kyoto WKY) rats with normal blood pressure, and are rats that spontaneously develop hypertension with aging without any artificial treatment. […] The blood pressure in the experimental animals was measured using a CODA-6 system (Kent Scientific Corp.) which is a non-invasive blood pressure (NIBP) measurement system. […] The rats were divided into total 7 groups according to the kind of drug to be administered, and five rats were randomly assigned to each group. The groups administered with each drug are as follows: (2) a group administered with 1 mg/kg/day of olmesartan medoxomil alone; (3) a group administered with 4 mg/kg/day of valsartan alone; (4) a group administered with 4 mg/kg/day of telmisartan alone; (5) a group administered with a combination of 1 mg/kg/day of olmesartan medoxomil+1 mg/kg/day of dapagliflozin; (6) a group administered with a combination of 4 mg/kg/day of valsartan+1 mg/kg/day of dapagliflozin; (7) a group administered with a combination of 4 mg/kg/day of telmisartan+1 mg/kg/day of dapagliflozin. (*In this Example, a dapagliflozin propylene glycol hydrate corresponding to 1 mg of dapagliflozin was administered actually). For drug administration, each drug was administered to each rat once a day at a predetermined dose at the same time every morning. Considering that the amounts of antihypertensive drugs used in humans are different, the antihypertensive drugs were administered at different doses.

SHR rats = test: 4-week evaluation of blood pressure lowering effect (non-invasive tail systolic and diastolic blood pressure); format: in vivo, rat; conditions: for Diastolic blood pressure at 1st week after administration / Diastolic blood pressure at 2nd week after administration / Diastolic blood pressure at 3rd week after administration / Diastolic blood pressure at 4th week after administration / Systolic blood pressure at 1st week after administration / Systolic blood pressure at 2nd week after administration / Systolic blood pressure at 3rd week after administration / Systolic blood pressure at 4th week after administration: oral once daily; for Diastolic blood pressure immediately after administration / Systolic blood pressure immediately after administration: oral, mean of 8 rats
Experimental: As experimental animals, 6-week-old male SHR rats were used (however, WKY rats were used as a normal control). A method for measurement of blood pressure is as follows: […] The rats were divided into total 7 groups according to the kind of drug to be administered, and eight rats were randomly assigned to each group. The groups administered with each drug are as follows: (3) a group administered with test substance 1 (G3): a group administered with a combination of 2 mg/kg/day of olmesartan medoxomil+1 mg/kg/day of dapagliflozin; (4) a group administered with test substance 2 (G4): a group administered with a combination of 2 mg/kg/day of olmesartan medoxomil+3 mg/kg/day of dapagliflozin; (5) a group administered with comparative substance 1 (G5): a group administered with 2 mg/kg/day of olmesartan medoxomil alone; (6) a group administered with comparative substance 2 (G6): a group administered with 1 mg/kg/day of dapagliflozin alone; (7) a group administered with […]: a group administered with 3 mg/kg/day of dapagliflozin alone. (* In this Experimental Example, dapagliflozin was administered in an anhydride form, not a solvate form). For drug administration, each drug was forcibly administered into the rat's stomach through a disposable syringe with an oral zonde at a predetermined dose at the same time every day. As test substances, olmesartan medoxomil was administered, and then immediately dapagliflozin was administered. The doses of the antihypertensive drug and the antidiabetic drug were determined considering the doses to be applied in clinical practice.

[2] = SHR, 1st to 4th week, olmesartan medoxomil 2 mg/kg/day with (G3) or without (G5) dapagliflozin 1 mg/kg/day
[3] = SHR, olmesartan medoxomil 2 mg/kg/day and/or dapagliflozin 1 mg/kg/day (G3, G5, G6)
[4] = p<0.01 at 1st, 2nd, 3rd and 4th week, olmesartan medoxomil 2 mg/kg/day with (G3) or without (G5) dapagliflozin 1 mg/kg/day
[5] = SHR, dapagliflozin 3 mg/kg/day with (G4) or without (G7) olmesartan medoxomil 2 mg/kg/day

Row | SMILES | Systolic blood pressure immediately before administration [1] [mmHg] | Size of blood pressure reduction [1] [mmHg] | Systolic blood pressure at 14th day after administration [1] [mmHg] | Diastolic blood pressure at 1st week after administration (SHR rats; [3]) [mmHg] | Diastolic blood pressure at 2nd week after administration (SHR rats; [3]) [mmHg] | Diastolic blood pressure at 3rd week after administration (SHR rats; [3]) [mmHg] | Diastolic blood pressure at 4th week after administration (SHR rats; [3]) [mmHg] | Systolic blood pressure at 1st week after administration (SHR rats; [3]) [mmHg] | Systolic blood pressure at 2nd week after administration (SHR rats; [3]) [mmHg] | Systolic blood pressure at 3rd week after administration (SHR rats; [3]) [mmHg] | Systolic blood pressure at 4th week after administration (SHR rats; [3]) [mmHg] | Diastolic blood pressure immediately after administration (SHR rats; [3]) [mmHg] | Systolic blood pressure immediately after administration (SHR rats; [3]) [mmHg] | also measured
1 | CCCCC(=O)N(Cc1ccc(-c2ccccc2-c2nnn[nH]2)cc1)[C@H](C(=O)O)C(C)C [Valsartan, valsartan] | 200 | 30 | 170 |  |  |  |  |  |  |  |  |  |  | 
2 | CCCc1nc2c(C)cc(-c3nc4ccccc4n3C)cc2n1Cc1ccc(-c2ccccc2C(=O)O)cc1 [Telmisartan, telmisartan] | 203 | 35 | 168 |  |  |  |  |  |  |  |  |  |  | 
3 | CCCc1nc(C(C)(C)O)c(C(=O)OCc2oc(=O)oc2C)n1Cc1ccc(-c2ccccc2-c2nnn[nH]2)cc1 [Olmesartan medoxomil, olmesartan medoxomil] | 202 | 39 | 163 | 127 | 153 | 153 | 172 | 159 | 181 | 178 | 190 | 140 | 171 | Range of mean diastolic blood pressure (SHR rats; [2]): 127 to 172 mmHg; Range of mean systolic blood pressure (SHR rats; [2]): 159 to 190 mmHg; Mean diastolic blood pressure compared with negative control group (G2) (SHR rats; [4]): statistically significantly lower; Mean systolic blood pressure compared with negative control group (G2) (SHR rats; [4]): statistically significantly lower
4 | CCOc1ccc(Cc2cc([C@@H]3O[C@H](CO)[C@@H](O)[C@H](O)[C@H]3O)ccc2Cl)cc1 [dapagliflozin] |  |  |  | 154 | 179 | 175 | 187 | 185 | 213 | 204 | 211 | 142 | 172 | Diastolic blood pressure at 1st week after administration (SHR rats; [5]): 149 mmHg; Diastolic blood pressure at 2nd week after administration (SHR rats; [5]): 188 mmHg; Diastolic blood pressure at 3rd week after administration (SHR rats; [5]): 204 mmHg; Diastolic blood pressure at 4th week after administration (SHR rats; [5]): 186 mmHg; Systolic blood pressure at 1st week after administration (SHR rats; [5]): 189 mmHg; Systolic blood pressure at 2nd week after administration (SHR rats; [5]): 219 mmHg; Systolic blood pressure at 3rd week after administration (SHR rats; [5]): 228 mmHg; Systolic blood pressure at 4th week after administration (SHR rats; [5]): 212 mmHg; Diastolic blood pressure immediately after administration (SHR rats; [5]): 139 mmHg; Systolic blood pressure immediately after administration (SHR rats; [5]): 172 mmHg
